In patent EP0774460A1, “BENZOIC ACID COMPOUND AND USE THEREOF AS MEDICINE” (YOSHITOMI PHARMACEUTICAL INDUSTRIES, LTD., priority 1994, dated 1995):
Like-named read-outs stand apart in the source and are kept apart here.

Columns and labels:
[1] = molecular target: T1, 5-HT4 receptor (Cavia porcellus, UniProt O70528); assay: 5-HT4 receptor binding test; parameters: species or system guinea pig
T1 construct: crude synapse membrane sample was prepared from guinea pig striatum; from tissue; host or cells: guinea pig striatum, crude synaptic membranes
T1 sequence (O70528 whole entry): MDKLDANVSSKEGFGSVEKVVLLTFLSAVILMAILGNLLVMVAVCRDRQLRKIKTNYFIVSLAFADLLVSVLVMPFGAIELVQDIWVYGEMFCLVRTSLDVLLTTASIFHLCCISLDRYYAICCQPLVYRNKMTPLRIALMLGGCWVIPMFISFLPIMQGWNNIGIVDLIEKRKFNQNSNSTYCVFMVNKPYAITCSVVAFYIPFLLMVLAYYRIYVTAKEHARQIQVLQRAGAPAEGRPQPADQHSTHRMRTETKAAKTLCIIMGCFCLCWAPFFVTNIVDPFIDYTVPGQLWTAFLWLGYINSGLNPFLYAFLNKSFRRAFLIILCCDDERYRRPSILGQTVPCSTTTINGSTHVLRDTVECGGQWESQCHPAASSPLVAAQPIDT
Procedure: Experimental Example 1 : 5-HT4 receptor binding test
According to the method of C.J. Grossman et al. (British Journal of Pharmacology, vol. 109, pp. 618-624), a specific 5-HT4 receptor binding test was run using, as a tracer ligand, 1-methyl-1H-indole-3-carboxylic acid · 1-(2-methylsulfonylaminoethyl)-piperidin-4-ylmethyl ester substituted by tritium (hereinafter to be referred to as [3H]GR113808). Specifically, crude synapse membrane sample was prepared from guinea pig striatum, suspended in 50 mM HEPES buffer (pH 7.4) and used for testing. The test compound having several different concentrations and [3H]GR113808 (final concentration 0.1 nM) were added to this suspension and allowed to react at 37°C. Thirty minutes later, the reaction mixture was filtered by suction with cell harvester. The filter was washed with 50 mM HEPES buffer, and the radioactivity on the filter was counted by liquid scintillation counter. The non-specific binding was determined in the presence of 1 µM GR113808. The concentration of the test compound necessary for 50% inhibition (IC50) and Ki value were determined from graph.

[2] = molecular target: T2, 5-HT3 receptor (Rattus norvegicus, UniProt P35563); assay: 5-HT3 receptor binding test; details: for Ki: cells without asterisk, read-out: Affinity for receptor (Ki value, nM) 5-HT3
T2 construct: crude synapse membrane sample was prepared from rat cerebral cortex; from tissue; host or cells: rat cerebral cortex, crude synaptic membranes
T2 sequence (P35563 24-483): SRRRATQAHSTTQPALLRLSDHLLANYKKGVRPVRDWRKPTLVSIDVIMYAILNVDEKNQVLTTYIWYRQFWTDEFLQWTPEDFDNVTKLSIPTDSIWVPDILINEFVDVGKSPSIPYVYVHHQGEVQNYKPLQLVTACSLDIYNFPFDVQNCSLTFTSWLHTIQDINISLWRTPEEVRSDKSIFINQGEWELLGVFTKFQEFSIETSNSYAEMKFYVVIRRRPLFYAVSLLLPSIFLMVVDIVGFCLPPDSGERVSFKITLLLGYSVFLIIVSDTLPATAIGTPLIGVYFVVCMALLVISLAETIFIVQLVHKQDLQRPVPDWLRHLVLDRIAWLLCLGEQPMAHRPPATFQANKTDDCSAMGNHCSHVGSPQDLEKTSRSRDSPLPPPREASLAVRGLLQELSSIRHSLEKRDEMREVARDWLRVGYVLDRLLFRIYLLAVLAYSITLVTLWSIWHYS
Procedure: Experimental Example 2 : 5-HT3 receptor binding test
According to the method of Peroutka et al (European Journal of Pharmacology, vol. 148, pp. 297-299), a specific 5-HT3 receptor binding test was run using, as a tracer ligand, endo-1-methyl-N-(9-methyl-9-azabicyclo[3.3.1]non-3-yl)-1H-indazole-3-carboxamide substituted by tritium (hereinafter to be referred to as [3H]Granisetron). Specifically, crude synapse membrane sample was prepared from rat cerebral cortex, suspended in 50 mM HEPES buffer (pH 7.4) and used for testing. The test compound having several different concentrations and [3H]Granisetron (final concentration 1.0 nM) were added to this suspension and allowed to react at 25°C. Thirty minutes later, the reaction mixture was filtered by suction with cell harvester. The filter was washed with 50 mM Tris buffer (pH 7.4), and the radioactivity on the filter was counted using liquid scintillation counter or β-plate. The non-specific binding was determined in the presence of 1 µM Tropisetron. The concentration of the test compound necessary for 50% inhibition (IC50) and Ki value were determined from graph.

[3] = molecular target: isolated guinea pig ascending colon (Cavia porcellus, UniProt O70528); assay: contraction of isolated guinea pig ascending colon; format: cell-based; details: male Hartley guinea pig ascending colon, Tyrode solution 37°C, relative to methacholine (30 µM) contraction; read-out: Contraction of removed colon (EC50)
Sequence of isolated guinea pig ascending colon (O70528 whole entry): as the sequence (O70528 whole entry) above
Procedure: Experimental Example 3 : contraction of isolated guinea pig ascending colon
About 3 cm long ascending colon segment was taken from male Hartley guinea pig and suspended in 10 ml of a Tyrode solution ventilated with a mixed gas of oxygen (95%) and CO2 (5%) at 37°C with the load of 2 g. The contraction was isotonically measured via isotonic transducer. After an equilibrium period of about 30 min, the test compound was administered non-cumulatively from lower concentrations, and dose-dependent contraction was measured. The test compound was administered at 15 minutes intervals. Then, contraction by the test compound in the presence of a 5-HT4 receptor antagonist, 4-amino-3-chloro-6-methoxybenzoic acid · 2-diethylaminoethyl ester (0.3 µM, hereinafter to be referred to as SDZ 205-557) was determined, and antagonistic effect on the reaction by SDZ 205-557 was confirmed.
The contraction by the test compound was evaluated based on the ratio of reaction relative to mean contraction induced by methacholine (30 µM) administered before and after each determination of dose-dependent contraction. The contraction was probit-converted using the maximum value of dose-response curve as 100, and expressed by EC50 as determined from linear regression and maximum reaction ratio.

[4] = [3H]GR113808 0.1 nM, crude synapse membrane from guinea pig striatum, 37°C, read-out: Affinity for receptor (Ki value, nM) 5-HT4
[5] = [3H]Granisetron 1.0 nM, crude synapse membrane from rat cerebral cortex, 25°C, cells marked * are IC50, read-out: Affinity for receptor 5-HT3 (∗ shows IC50)
[6] = [3H]Granisetron 1.0 nM, crude synapse membrane from rat cerebral cortex, 25°C

Ki [1, 4] [nM]	IC50 [2, 5] [nM]	Ki [2, 6] [nM]	EC50 [3] [nM]	SMILES	Ki [1] [nM]	IC50 [2] [nM]
6.2	> 1000			COc1cc(N)c(Cl)cc1C(=O)NC[C@H]1CCN(CCCNC(=O)c2ccccc2)C1 [Example 11, 4-amino-N-((3R)-1-(3-benzoylaminopropyl)pyrrolidin-3-ylmethyl)-5-chloro-2-methoxybenzamide]		
1.4		370		COc1cc(N)c(Cl)cc1C(=O)NCCCCCN1CC[C@H](CNC(=O)c2cc(Cl)c(N)cc2OC)C1 [Example 78, 4-amino-N-((3R)-1-(5-(4-amino-5-chloro-2-methoxybenzoylamino)pentyl)pyrrolidin-3-ylmethyl)-5-chloro-2-methoxybenzamide]		
				COc1cc(N)c(Cl)cc1C(=O)NC[C@H]1CCN(CCCCNC(=O)c2cn(C(C)C)c3ccccc23)C1 [Example 94, N-(4-((3R)-3-(4-amino-5-chloro-2-methoxybenzoylaminomethyl)pyrrolidin-1-yl)butyl)-1-isopropyl-1H-indole-3-carboxamide]	3.5	> 1000
1.2		350	1.4	COc1cc(N)c(Cl)cc1C(=O)NC[C@H]1CCN(CCCCCNC(=O)c2cn(C)c3ccccc23)C1 [Example 88, N-(5-((3R)-3-(4-amino-5-chloro-2-methoxybenzoylaminomethyl)pyrrolidin-1-yl)pentyl)-1-methyl-1H-indole-3-carboxamide]		
7.4	> 1000			COc1cc(N)c(Cl)cc1C(=O)NCC1CCN(CCCC(=O)Nc2ccccc2)C1 (stereo not drawn) [Example 71, 4-amino-5-chloro-2-methoxy-N-(1-(3-phenylcarbamoylpropyl)pyrrolidin-3-ylmethyl)benzamide]		
1.7	> 1000		3.7	COc1cc(N)c(Cl)cc1C(=O)NCC1CCN(CCCCCNC(=O)c2ccccc2)CC1 [Example 29, 4-amino-N-(1-(5-benzoylaminopentyl)piperidin-4-ylmethyl)-5-chloro-2-methoxybenzamide]		
1.3	> 1000		3.3	COc1cc(N)c(Cl)cc1C(=O)NC[C@H]1CCN(CCCCNC(=O)c2cccc3ccccc23)C1 [Example 22, 4-amino-5-chloro-2-methoxy-N-((3R)-1-(4-(1-naphthoylamino)butyl)pyrrolidin-3-ylmethyl)benzamide]		
5.3	> 1000			COc1cc(N)c(Cl)cc1C(=O)NC[C@H]1CCN(CCNC(=O)CCCc2ccccc2)C1 [Example 100, 4-amino-5-chloro-2-methoxy-N-((3R)-1-(2-(4-phenylbutyrylamino)ethyl)pyrrolidin-3-ylmethyl)benzamide]		
1.6	> 1000		4	COc1cc(N)c(Cl)cc1C(=O)NCC1CCN(CCCCNC(=O)c2cn(C)c3ccccc23)CC1 [Example 98, N-(4-(4-(4-amino-5-chloro-2-methoxybenzoylaminomethyl)piperidin-1-yl)butyl)-1-methyl-1H-indole-3-carboxamide]		
1.5	> 1000		6.9	CCCNC(=O)NCCCCCN1CC[C@H](CNC(=O)c2cc(Cl)c(N)cc2OC)C1 [Example 46, 4-amino-5-chloro-2-methoxy-N-((3R)-1-(5-(3-n-propylureido)pentyl)pyrrolidin-3-ylmethyl)benzamide]		
3.1	> 1000			COc1cc(N)c(Cl)cc1C(=O)NCC1CCN(CCCNC(=O)c2ccc(C)cc2)C1 (stereo not drawn) [Example 17, 4-amino-5-chloro-2-methoxy-N-(1-(3-(4-methylbenzoylamino)propyl)pyrrolidin-3-ylmethyl)benzamide]		
5.5	> 1000			CCCNC(=O)NCCCCN1CCC(CNC(=O)c2cc(Cl)c(N)cc2OC)CC1 [Example 45, 4-amino-5-chloro-2-methoxy-N-(1-(4-(3-n-propylureido)butyl)piperidin-4-ylmethyl)benzamide]		
2.3	> 1000			COc1cc(N)c(Cl)cc1C(=O)NCC1CCN(CCCCCNC(=O)c2ccc(C)cc2)CC1 [Example 31, 4-amino-5-chloro-N-(1-(5-(4-methylbenzoylamino)pentyl)piperidin-4-ylmethyl)-2-methoxybenzamide]		
3.1	> 1000			COc1cc(N)c(Cl)cc1C(=O)NCC1CCN(CCCNC(=O)c2ccc(Cl)cc2)C1 (stereo not drawn) [Example 13, 4-amino-5-chloro-N-(1-(3-(4-chlorobenzoylamino)propyl)pyrrolidin-3-ylmethyl)-2-methoxybenzamide]		
2.1	> 1000		4.8	CCCNC(=O)NCCCCCN1CCC(CNC(=O)c2cc(Cl)c(N)cc2OC)CC1 [Example 48, 4-amino-5-chloro-2-methoxy-N-(1-(5-(3-n-propylureido)pentyl)piperidin-4-ylmethyl)benzamide]		
0.44		260	1.2	COc1cc(N)c(Cl)cc1C(=O)NC[C@H]1CCN(CCCCNC(=O)c2cn(C)c3ccccc23)C1 [Example 85, N-(4-((3R)-3-(4-amino-5-chloro-2-methoxybenzoylaminomethyl)pyrrolidin-1-yl)butyl)-1-methyl-1H-indole-3-carboxamide]		
1.6	> 1000		3.9	COc1cc(N)c(Cl)cc1C(=O)NCC1CCN(CCCCNC(=O)c2cccc3ccccc23)CC1 [Example 24, 4-amino-5-chloro-2-methoxy-N-(1-(4-(1-naphthoylamino)butyl)piperidin-4-ylmethyl)benzamide]		
2.2	> 1000		5.3	COc1cc(N)c(Cl)cc1C(=O)NC[C@H]1CCN(CCCCCNC(=O)c2ccccc2)C1 [Example 27, 4-amino-N-((3R)-1-(5-benzoylaminopentyl)pyrrolidin-3-yl-methyl)-5-chloro-2-methoxybenzamide]		
1.1		190		COc1cc(N)c(Cl)cc1C(=O)NCC1CCN(CCCCCNC(=O)Nc2ccc(Cl)cc2)CC1 [Example 59, 4-amino-5-chloro-N-(1-(5-(3-(4-chlorophenyl)ureido)pentyl)-piperidin-4-ylmethyl)-2-methoxybenzamide]		
4.4	> 1000			COc1cc(N)c(Cl)cc1C(=O)NCC1CCN(CCCNC(=O)c2cccs2)C1 (stereo not drawn) [Example 19, 4-amino-5-chloro-2-methoxy-N-(1-(3-(2-thiophenecarbonylamino)propyl)pyrrolidin-3-ylmethyl)benzamide]		

SMILES	Ki [1, 4] [nM]	IC50 [2, 5] [nM]	Ki [2, 6] [nM]	EC50 [3] [nM]	Ki [1] [nM]	IC50 [2] [nM]
COc1cc(N)c(Cl)cc1C(=O)NC[C@H]1CCN(CCCCNC(=O)c2cn(Cc3ccccc3)c3ccccc23)C1 [Example 95, N-(4-((3R)-3-(4-amino-5-chloro-2-methoxybenzoylaminomethyl)pyrrolidin-1-yl)butyl)-1-benzyl-1N-indole-3-carboxamide]	1.2	> 1000				
